Data as given in PubChem BioAssay (NCI).
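Assay format: 96-well plates, 48-hour exposure. Here, GI50 denotes the concentration required for 50% inhibition of growth. TGI is the concentration that stops growth completely.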

Legend:
Assay in all cases: NCI-60 cell line screen, 48 h
SF-539 CNS = test system: SF-539 CNS
MOLT-4 leukemia = test system: MOLT-4 leukemia
SR leukemia = test system: SR leukemia
SW-620 colon = test system: SW-620 colon
A549 NSCLC = test system: A549 NSCLC
MDA-MB-231 breast = test system: MDA-MB-231 breast
NCI/ADR-RES ovarian = test system: NCI/ADR-RES ovarian
OVCAR-3 ovarian = test system: OVCAR-3 ovarian
PC-3 prostate = test system: PC-3 prostate
BT-549 breast = test system: BT-549 breast

For `O=C(CCc1cc(-c2ccco2)n(-c2ccc([N+](=O)[O-])cc2[N+](=O)[O-])n1)Nc1ccccc1`, the TGI (SF-539 CNS) was > 100 µM, the TGI (MOLT-4 leukemia) was > 100 µM and the TGI (SR leukemia) was > 100 µM. For the same compound, the TGI (SW-620 colon) was > 100 µM and the TGI (A549 NSCLC) was > 100 µM.
`COc1ccc(OC)c(/C=C/c2cnnc3ccccc23)c1` was tested, and the TGI (MDA-MB-231 breast) was > 10 µM, the TGI (SF-539 CNS) was 8.62 µM and the TGI (NCI/ADR-RES ovarian) was 7.81 µM. The TGI (OVCAR-3 ovarian) was > 10 µM, the TGI (MOLT-4 leukemia) was > 10 µM and the TGI (SR leukemia) was 5.14 µM. For the same compound, the TGI (SW-620 colon) was > 10 µM, the TGI (A549 NSCLC) was > 10 µM and the TGI (PC-3 prostate) was > 10 µM.
With `COC(=O)c1cc(O)ccc1NC(=O)c1ccc(O)cc1` the TGI (SF-539 CNS) was > 100 µM, the TGI (OVCAR-3 ovarian) was > 100 µM and the TGI (MOLT-4 leukemia) was > 100 µM. For the same compound, the TGI (SR leukemia) was > 100 µM, the TGI (SW-620 colon) was > 100 µM and the TGI (A549 NSCLC) was > 100 µM.
`Cc1ccccc1C(C#N)/C(=N/NC(=O)C(=O)NN)C(=O)Nc1cccc(C(F)(F)F)c1` (stereo not drawn) was tested, and the TGI (SF-539 CNS) was > 100 µM, the TGI (OVCAR-3 ovarian) was > 100 µM and the TGI (MOLT-4 leukemia) was > 100 µM. For the same compound, the TGI (SR leukemia) was > 100 µM, the TGI (SW-620 colon) was > 100 µM and the TGI (A549 NSCLC) was > 100 µM.
For `CCOC(=O)c1c2c(n3cccc(F)c13)C(=O)c1ncccc1C2=O`, the GI50 (MDA-MB-231 breast) was 4.14 µM, the TGI (MDA-MB-231 breast) was 64.7 µM and the GI50 (SF-539 CNS) was 0.157 µM. For the same compound, the TGI (SF-539 CNS) was 1.35 µM, the GI50 (NCI/ADR-RES ovarian) was 0.436 µM and the TGI (NCI/ADR-RES ovarian) was 6.82 µM. For the same compound, the GI50 (OVCAR-3 ovarian) was 0.22 µM, the TGI (OVCAR-3 ovarian) was 2.42 µM and the GI50 (MOLT-4 leukemia) was 3.06 µM. It also gave a TGI (MOLT-4 leukemia) of 23.7 µM, a GI50 (SW-620 colon) of 0.151 µM and a TGI (SW-620 colon) of 11.3 µM. It also gave a GI50 (A549 NSCLC) of 0.217 µM, a TGI (A549 NSCLC) of 1.67 µM and a GI50 (PC-3 prostate) of 0.449 µM. For the same compound, the TGI (PC-3 prostate) was 7.63 µM.
For `COc1ccc(OC)c2c3c(ncc12)-c1cc2c(cc1C3)OCO2`, the GI50 (MDA-MB-231 breast) was 4.76 µM, the TGI (MDA-MB-231 breast) was > 100 µM and the GI50 (NCI/ADR-RES ovarian) was > 100 µM. For the same compound, the TGI (NCI/ADR-RES ovarian) was > 100 µM, the GI50 (OVCAR-3 ovarian) was 26.9 µM and the TGI (OVCAR-3 ovarian) was > 100 µM. For the same compound, the GI50 (SR leukemia) was 4.22 µM, the TGI (SR leukemia) was > 100 µM and the GI50 (SW-620 colon) was > 100 µM. For the same compound, the TGI (SW-620 colon) was > 100 µM, the GI50 (A549 NSCLC) was > 100 µM and the TGI (A549 NSCLC) was > 100 µM. For the same compound, the GI50 (PC-3 prostate) was > 100 µM and the TGI (PC-3 prostate) was > 100 µM.
In the case of `[O-][N+]1=C(c2ccccc2)COc2ccccc21`, the TGI (SF-539 CNS) is reported as > 100 µM, the TGI (OVCAR-3 ovarian) is reported as > 100 µM and the TGI (MOLT-4 leukemia) is reported as > 100 µM. The TGI (SR leukemia) was > 100 µM, the TGI (SW-620 colon) was > 100 µM and the TGI (A549 NSCLC) was > 100 µM.
For `CCOCC[P+](c1ccccc1)(c1ccccc1)c1ccccc1`, the GI50 (MDA-MB-231 breast) was 22.6 µM, the TGI (MDA-MB-231 breast) was > 100 µM and the GI50 (SF-539 CNS) was 23.2 µM. For the same compound, the TGI (SF-539 CNS) was > 100 µM, the GI50 (NCI/ADR-RES ovarian) was > 100 µM and the TGI (NCI/ADR-RES ovarian) was > 100 µM. For the same compound, the GI50 (OVCAR-3 ovarian) was 19.3 µM, the TGI (OVCAR-3 ovarian) was > 100 µM and the GI50 (MOLT-4 leukemia) was 31.4 µM. For the same compound, the TGI (MOLT-4 leukemia) was > 100 µM, the GI50 (SR leukemia) was 12.1 µM and the TGI (SR leukemia) was > 100 µM. For the same compound, the GI50 (SW-620 colon) was 25.2 µM, the TGI (SW-620 colon) was > 100 µM and the GI50 (A549 NSCLC) was 16.4 µM. It also gave a TGI (A549 NSCLC) of 87.8 µM, a GI50 (PC-3 prostate) of 10.8 µM and a TGI (PC-3 prostate) of 72.9 µM.
For `COc1ccc2c(c1)c(=O)oc1cc(OC/C(=N\O)c3ccc(F)cc3)ccc12`, the GI50 (MDA-MB-231 breast) was 18 µM, the TGI (MDA-MB-231 breast) was 43.4 µM and the GI50 (SF-539 CNS) was 21.4 µM. The TGI (SF-539 CNS) was 40.9 µM, the GI50 (NCI/ADR-RES ovarian) was 18.2 µM and the TGI (NCI/ADR-RES ovarian) was 49.7 µM. It also gave a GI50 (OVCAR-3 ovarian) of 20.4 µM, a TGI (OVCAR-3 ovarian) of 47.4 µM and a GI50 (MOLT-4 leukemia) of 18.1 µM. The TGI (MOLT-4 leukemia) was > 100 µM, the GI50 (SW-620 colon) was 26.4 µM and the TGI (SW-620 colon) was 96.3 µM. The GI50 (A549 NSCLC) was 27.8 µM, the TGI (A549 NSCLC) was > 100 µM and the GI50 (PC-3 prostate) was 24.1 µM. It also gave a TGI (PC-3 prostate) of 79 µM, a GI50 (BT-549 breast) of 18.8 µM and a TGI (BT-549 breast) of 44.2 µM.
With `O=c1[nH]c(C2CCCCC2)nc2cc(Cl)ccc12` the TGI (SF-539 CNS) was > 100 µM, the TGI (OVCAR-3 ovarian) was > 100 µM and the TGI (MOLT-4 leukemia) was > 100 µM. For the same compound, the TGI (SR leukemia) was > 100 µM, the TGI (SW-620 colon) was > 100 µM and the TGI (A549 NSCLC) was > 100 µM.
In the case of `COC(=O)/C(Cl)=C1/CC1COCc1ccccc1` (stereo not drawn), the TGI (SF-539 CNS) is reported as 49.8 µM, the TGI (OVCAR-3 ovarian) is reported as 52.5 µM and the TGI (MOLT-4 leukemia) is reported as 53.5 µM. For the same compound, the TGI (SW-620 colon) was 45.1 µM and the TGI (A549 NSCLC) was > 100 µM.
For `COc1cc2c3c(n(CCCN4CCOCC4)c(=O)c2cc1OC)-c1cc2c(cc1C3=O)OCO2`, the GI50 (MDA-MB-231 breast) was 3.92 µM, the GI50 (SF-539 CNS) was 0.165 µM and the TGI (SF-539 CNS) was 2.37 µM. The GI50 (NCI/ADR-RES ovarian) was 1.57 µM, the TGI (NCI/ADR-RES ovarian) was 27.1 µM and the GI50 (OVCAR-3 ovarian) was 15.6 µM. For the same compound, the TGI (OVCAR-3 ovarian) was > 50.7 µM, the GI50 (MOLT-4 leukemia) was 0.0841 µM and the TGI (MOLT-4 leukemia) was 1.81 µM. The GI50 (SW-620 colon) was 8.94 µM, the TGI (SW-620 colon) was > 100 µM and the GI50 (A549 NSCLC) was 3.43 µM. The TGI (A549 NSCLC) was > 100 µM, the GI50 (PC-3 prostate) was 18.7 µM and the TGI (PC-3 prostate) was > 100 µM. The GI50 (BT-549 breast) was 12.6 µM and the TGI (BT-549 breast) was > 100 µM.
`O=C(O)c1cn(C2CC2)c2cc(N3CCN(C(=O)Nc4nc(-c5ccc(Cl)cc5)cs4)CC3)c(F)cc2c1=O` was tested, and the GI50 (MDA-MB-231 breast) was 3.63 µM, the TGI (MDA-MB-231 breast) was > 100 µM and the GI50 (SF-539 CNS) was 0.775 µM. The TGI (SF-539 CNS) was > 100 µM, the GI50 (NCI/ADR-RES ovarian) was 4.21 µM and the TGI (NCI/ADR-RES ovarian) was > 100 µM. For the same compound, the GI50 (OVCAR-3 ovarian) was 2.38 µM, the TGI (OVCAR-3 ovarian) was 34.6 µM and the GI50 (SW-620 colon) was 4.7 µM. For the same compound, the TGI (SW-620 colon) was > 100 µM, the GI50 (A549 NSCLC) was 2.71 µM and the TGI (A549 NSCLC) was > 100 µM. The GI50 (PC-3 prostate) was 2.7 µM, the TGI (PC-3 prostate) was > 100 µM and the GI50 (BT-549 breast) was 0.934 µM. The TGI (BT-549 breast) was 25.5 µM.
With `C/C(CN1C(=O)c2ccccc2C1=O)=N\NS(C)(=O)=O` the TGI (SF-539 CNS) was > 100 µM, the TGI (OVCAR-3 ovarian) was > 100 µM and the TGI (MOLT-4 leukemia) was > 100 µM. The TGI (SW-620 colon) was > 100 µM and the TGI (A549 NSCLC) was > 100 µM.
In the case of `COC(=O)C1CCc2nnc(-c3cccnc3)n21` (stereo not drawn), the TGI (SF-539 CNS) is reported as > 100 µM, the TGI (OVCAR-3 ovarian) is reported as > 100 µM and the TGI (MOLT-4 leukemia) is reported as > 100 µM. The TGI (SR leukemia) was > 100 µM, the TGI (SW-620 colon) was > 100 µM and the TGI (A549 NSCLC) was > 100 µM.
